According to patent US8921376B2, “Pyrrolopyridines useful as inhibitors of protein kinase” (Vertex Pharmaceuticals Incorporated, priority 2005, dated 2014):

Assays:
Type in all cases: biochemical
JAK3 = target: T1, JAK3 (Homo sapiens, UniProt P52333); experiment: JAK3 inhibition assay (33P incorporation into poly(Glu)4Tyr)
T1 sequence (P52333 1-1124): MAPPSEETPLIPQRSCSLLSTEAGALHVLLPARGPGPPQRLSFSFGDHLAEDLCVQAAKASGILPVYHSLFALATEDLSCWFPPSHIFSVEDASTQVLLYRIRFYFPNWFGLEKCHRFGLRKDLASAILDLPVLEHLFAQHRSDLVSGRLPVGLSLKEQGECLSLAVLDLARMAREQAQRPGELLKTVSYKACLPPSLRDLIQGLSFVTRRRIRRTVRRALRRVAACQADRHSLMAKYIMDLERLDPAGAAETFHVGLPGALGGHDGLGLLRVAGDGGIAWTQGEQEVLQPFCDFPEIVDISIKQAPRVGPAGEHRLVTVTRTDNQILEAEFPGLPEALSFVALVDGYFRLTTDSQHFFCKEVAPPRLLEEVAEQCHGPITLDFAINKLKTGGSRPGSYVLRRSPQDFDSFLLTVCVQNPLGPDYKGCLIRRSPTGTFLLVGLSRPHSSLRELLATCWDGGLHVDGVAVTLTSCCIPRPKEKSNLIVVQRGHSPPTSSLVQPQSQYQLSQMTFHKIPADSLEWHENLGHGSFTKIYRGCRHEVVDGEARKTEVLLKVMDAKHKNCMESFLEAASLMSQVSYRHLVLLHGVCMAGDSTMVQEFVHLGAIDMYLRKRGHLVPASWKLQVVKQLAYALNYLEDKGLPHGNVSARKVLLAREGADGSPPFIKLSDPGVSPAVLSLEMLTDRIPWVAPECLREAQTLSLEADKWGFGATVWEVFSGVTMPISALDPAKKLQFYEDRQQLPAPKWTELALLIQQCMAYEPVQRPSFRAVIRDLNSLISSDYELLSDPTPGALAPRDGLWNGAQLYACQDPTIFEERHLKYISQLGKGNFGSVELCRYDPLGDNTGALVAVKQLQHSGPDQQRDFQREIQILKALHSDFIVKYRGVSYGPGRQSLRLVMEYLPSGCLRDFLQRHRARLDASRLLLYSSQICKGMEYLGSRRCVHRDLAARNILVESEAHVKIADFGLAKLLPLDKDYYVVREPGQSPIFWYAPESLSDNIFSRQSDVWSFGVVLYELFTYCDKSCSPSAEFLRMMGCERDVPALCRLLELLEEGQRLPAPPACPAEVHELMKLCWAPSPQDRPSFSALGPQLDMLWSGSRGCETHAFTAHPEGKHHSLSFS
Description: (§1) Compounds were screened for their ability to inhibit JAK using the assay shown below. Reactions were carried out in a kinase buffer containing 100 mM HEPES (pH 7.4), 1 mM DTT, 10 mM MgCl2, 25 mM NaCl, and 0.01% BSA.
(§2) Substrate concentrations in the assay were 5 μM ATP (200 μCi/μmole ATP) and 1 μM poly(Glu)4Tyr. Reactions were carried out at 25° C. and 1 nM JAK3.
(§3) To each well of a 96 well polycarbonate plate was added 1.5 μl of a candidate JAK3 inhibitor along with 50/1 of kinase buffer containing 2 μM poly(Glu)4Tyr and 10 μM ATP. This was then mixed and 50 μl of kinase buffer containing 2 nM JAK3 enzyme was added to start the reaction. After 20 minutes at room temperature (25 C), the reaction was stopped with 50 μl of 20% trichloroacetic acid (TCA) that also contained 0.4 mM ATP. The entire contents of each well were then transferred to a 96 well glass fiber filter plate using a TomTek Cell Harvester. After washing, 60 μl of scintillation fluid was added and ^33P incorporation detected on a Perkin Elmer TopCount.

JAK2 = JAK2 (Homo sapiens, UniProt O60674); experiment: JAK2 inhibition assay (as Example 3 with JAK-2 enzyme)
Sequence of JAK2 (O60674 whole entry): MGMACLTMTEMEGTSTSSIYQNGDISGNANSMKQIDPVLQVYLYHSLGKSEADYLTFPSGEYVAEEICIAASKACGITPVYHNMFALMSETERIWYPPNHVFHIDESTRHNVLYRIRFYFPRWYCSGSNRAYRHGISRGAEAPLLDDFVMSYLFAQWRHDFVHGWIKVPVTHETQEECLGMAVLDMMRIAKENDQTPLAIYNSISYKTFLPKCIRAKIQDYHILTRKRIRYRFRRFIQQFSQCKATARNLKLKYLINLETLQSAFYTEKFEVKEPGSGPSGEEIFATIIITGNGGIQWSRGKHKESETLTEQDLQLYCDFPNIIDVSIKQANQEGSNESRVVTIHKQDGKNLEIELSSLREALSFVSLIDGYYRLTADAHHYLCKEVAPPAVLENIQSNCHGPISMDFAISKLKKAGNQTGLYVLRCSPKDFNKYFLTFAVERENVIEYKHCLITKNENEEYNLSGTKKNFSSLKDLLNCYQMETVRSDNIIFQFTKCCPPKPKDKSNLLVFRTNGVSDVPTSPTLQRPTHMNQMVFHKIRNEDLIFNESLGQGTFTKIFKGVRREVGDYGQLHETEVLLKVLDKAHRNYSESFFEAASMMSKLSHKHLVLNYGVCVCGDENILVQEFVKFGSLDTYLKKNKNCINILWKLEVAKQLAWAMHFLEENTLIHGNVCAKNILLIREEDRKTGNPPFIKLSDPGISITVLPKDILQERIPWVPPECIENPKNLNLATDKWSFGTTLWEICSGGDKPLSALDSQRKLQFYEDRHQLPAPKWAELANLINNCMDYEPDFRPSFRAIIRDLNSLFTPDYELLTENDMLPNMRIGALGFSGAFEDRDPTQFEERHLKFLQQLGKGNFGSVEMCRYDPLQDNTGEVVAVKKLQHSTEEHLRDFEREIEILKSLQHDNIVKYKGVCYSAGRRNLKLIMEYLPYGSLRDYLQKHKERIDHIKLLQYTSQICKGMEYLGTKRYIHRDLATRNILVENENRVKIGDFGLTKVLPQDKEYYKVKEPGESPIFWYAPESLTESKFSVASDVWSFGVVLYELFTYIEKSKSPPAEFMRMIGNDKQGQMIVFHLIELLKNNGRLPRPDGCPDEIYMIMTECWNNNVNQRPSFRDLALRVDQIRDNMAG
Description: as §1, §2, §3
The assays were as described above in Example 3 except that JAK-2 enzyme was used, the final poly(Glu)4Tyr concentration was 15 μM, and final ATP concentration was 12 μM.

ROCK I = ROCK I (Homo sapiens, UniProt Q13464); experiment: ROCK-I inhibition assay (radioactive enzyme assay, MBP substrate)
Sequence of ROCK I (Q13464 whole entry): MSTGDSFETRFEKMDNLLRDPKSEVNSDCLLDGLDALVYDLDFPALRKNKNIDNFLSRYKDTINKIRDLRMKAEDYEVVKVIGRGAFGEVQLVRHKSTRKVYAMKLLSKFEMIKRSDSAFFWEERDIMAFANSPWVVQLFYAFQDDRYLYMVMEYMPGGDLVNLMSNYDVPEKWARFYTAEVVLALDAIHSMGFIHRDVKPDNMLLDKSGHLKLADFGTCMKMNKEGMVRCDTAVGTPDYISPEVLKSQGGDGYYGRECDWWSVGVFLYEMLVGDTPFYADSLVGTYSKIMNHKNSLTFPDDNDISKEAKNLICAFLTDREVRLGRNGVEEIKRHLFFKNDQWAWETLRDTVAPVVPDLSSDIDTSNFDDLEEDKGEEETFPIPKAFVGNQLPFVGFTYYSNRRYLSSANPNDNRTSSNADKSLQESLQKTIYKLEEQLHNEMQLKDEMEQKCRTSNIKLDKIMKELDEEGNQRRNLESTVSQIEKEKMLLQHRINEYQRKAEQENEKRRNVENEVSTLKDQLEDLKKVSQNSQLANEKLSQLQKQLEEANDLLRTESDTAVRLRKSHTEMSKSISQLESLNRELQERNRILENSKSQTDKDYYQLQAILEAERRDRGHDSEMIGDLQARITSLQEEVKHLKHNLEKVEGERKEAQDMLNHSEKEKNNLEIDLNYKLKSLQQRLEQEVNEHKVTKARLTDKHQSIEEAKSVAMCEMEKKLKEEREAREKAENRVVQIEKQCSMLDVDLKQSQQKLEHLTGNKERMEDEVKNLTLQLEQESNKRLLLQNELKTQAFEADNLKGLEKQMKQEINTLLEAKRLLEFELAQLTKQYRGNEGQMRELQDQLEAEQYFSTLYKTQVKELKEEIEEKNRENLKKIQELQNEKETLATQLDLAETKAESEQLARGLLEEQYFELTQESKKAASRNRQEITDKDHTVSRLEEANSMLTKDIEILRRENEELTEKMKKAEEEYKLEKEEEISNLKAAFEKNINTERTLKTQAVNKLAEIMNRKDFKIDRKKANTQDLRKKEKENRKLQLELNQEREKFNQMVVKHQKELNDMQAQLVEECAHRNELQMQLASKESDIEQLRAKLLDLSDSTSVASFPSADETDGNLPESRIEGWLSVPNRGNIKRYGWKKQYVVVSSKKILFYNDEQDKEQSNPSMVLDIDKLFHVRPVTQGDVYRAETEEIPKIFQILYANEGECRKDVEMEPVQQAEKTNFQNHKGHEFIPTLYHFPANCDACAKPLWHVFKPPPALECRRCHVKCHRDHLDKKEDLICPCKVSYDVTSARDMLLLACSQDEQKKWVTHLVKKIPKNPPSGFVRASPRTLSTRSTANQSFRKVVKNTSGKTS
Description: Compounds were screened for their ability to inhibit ROCK using a standard radioactive enzyme assay. Assays were carried out in a solution containing 100 mM HEPES (pH 7.5), 10 mM MgCl2, 25 mM NaCl, 2 mM DTT, and 1.5% DMSO. Final substrate concentrations in the assay were 13 μM [γ-^33P] ATP (25 mCi ^33P ATP/mmol ATP, Perkin Elmer, Cambridge, Mass./Sigma Chemicals, St Louis, Mo.) and 27 μM Myelin Basic Protein (MBP). Final enzyme concentration in the assay was 5 nM ROCK. Assays were carried out at room temperature. 1.5 μl of DMSO stock containing serial dilutions of the compound of the present invention (concentrations ranging from 10 μM to 2.6 nM) was placed in a 96 well plate. 50 μl of Solution 1 (100 mM HEPES (pH 7.5), 10 mM MgCl2, […]) was added to the plate. The reaction was initiated by addition of 50 μl of Solution 2 (100 mM HEPES (pH 7.5), 10 mM MgCl2, 4 mM DTT, […] and 10 nM ROCK). After 2 hours the reaction was quenched with 50 μL of 30% trichloroacetic acid (TCA, Fisher) containing 9 mM ATP. Transfer of 140 μL of the quenched reaction to a glass fiber filter plate (Corning, Cat. No. 3511) was followed by washing 3 times with 5% TCA. 50 μl of Optima Gold scintillation fluid (Perkin Elmer) was added and the plates were counted on a Top Count (Perkin Elmer). After removing mean background values for all of the data points the data was fit using Prism software to obtain a Ki(app).

[1] = Table 6, enzyme inhibition data (Ki)
[2] = enzyme inhibition, Ki(app), Table 5

Row | Structure (SMILES) | Ki (JAK3; [1]) | Ki (JAK2; [1]) | Ki (ROCK I; [1]) | Ki (JAK3; enzyme inhibition, Table 5) | Ki (JAK2; enzyme inhibition, Table 5) | Ki (ROCK I; [2])
1 | CN(CC(F)(F)F)C(=O)c1cc(-c2c(F)cnc3[nH]ccc23)c[nH]1 [compound 393] | < 500 nM | < 500 nM | < 500 nM |  |  | 
2 | COc1cccc(CNc2cccc(-c3ccnc4[nH]ccc34)n2)c1 [compound 73, N-(3-Methoxybenzyl)-6-(1H-pyrrolo[2,3-b]pyridin-4-yl)pyridin-2-anine] |  |  |  | 500 to 5000 nM | 500 to 5000 nM | 500 to 5000 nM
3 | CS(=O)(=O)Nc1ccccc1-c1ccnc2[nH]ccc12 [compound 247] | > 5000 nM | > 5000 nM | > 4000 nM |  |  | 
4 | O=C(CCNc1nc(-c2ccnc3[nH]ccc23)nc2ccccc12)NCC(F)(F)F [compound 197] | 500 to 5000 nM | 500 to 5000 nM | > 4000 nM |  |  | 
5 | N#CC1CCCN1C(=O)c1cc(-c2ccnc3[nH]ccc23)c[nH]1 (stereo not drawn) [compound 373] | < 500 nM | < 500 nM | < 500 nM |  |  | 
6 | CN1CCN(C(=O)c2cccc(-c3ccnc4[nH]ccc34)c2)CC1 [compound 95, (4-Methyl-piperazin-1-yl)-[3-(1H-pyrrolo[2,3-b]pyridin-4-yl)-phenyl]-methanone] |  |  |  | > 5000 nM | > 5000 nM | 500 to 5000 nM
7 | C[C@H](Nc1ccnc(-c2ccnc3[nH]ccc23)n1)C(=O)NC1CC1 [compound 130] |  |  |  | 500 to 5000 nM | 500 to 5000 nM | 500 to 5000 nM
8 | CC1CCCN1C(=O)c1csc(-c2ccnc3[nH]ccc23)n1 (stereo not drawn) [compound 419] | < 500 nM | < 500 nM | < 500 nM |  |  | 
9 | O=S(=O)(c1ccccc1)n1cc(-c2c(Cl)cnc3[nH]ccc23)c2ccccc21 [compound 148] | 500 to 5000 nM | 500 to 5000 nM | > 4000 nM |  |  | 
10 | CC(C)CN(C)C(=O)c1cc(-c2c(Cl)cnc3[nH]ccc23)c[nH]1 [compound 341] | < 500 nM | < 500 nM | 500 to 5000 nM |  |  | 
11 | CC(C)c1cccc(-c2ccnc3[nH]ccc23)n1 [compound 97, 4-(6-isopropylpyridin-2-yl)-1H-pyrrolo[2,3-b]pyridine] |  |  |  | < 500 nM | < 500 nM | < 500 nM
12 | O=C(O)c1cc(-c2c(Cl)cnc3[nH]ccc23)c[nH]1 [compound 81, 4-(5-Chloro-1H-pyrrolo[2,3b]pyridin-4-yl)-1H-pyrrole-2-carboxylic acid] |  |  |  | < 500 nM | < 500 nM | 500 to 5000 nM
13 | CCN(CC)C(=O)c1cc(-c2ccnc3[nH]ccc23)c[nH]1 [compound 262] | < 500 nM | < 500 nM | < 500 nM |  |  | 
14 | Clc1cnc2[nH]ccc2c1-c1cn[nH]c1 [compound 80, 5-Chloro-4-(1H-pyrazol-4-yl)-1H-pyrrolo[2,3b]pyridine] |  |  |  | < 500 nM | < 500 nM | 500 to 5000 nM
15 | O=C(NC1CC1)c1cc(-c2c(Cl)cnc3[nH]ccc23)c[nH]1 [compound 281] | < 500 nM | < 500 nM | 500 to 5000 nM |  |  | 
16 | CCCS(=O)(=O)N1CCCC(Nc2c(Cl)cnc3[nH]ccc23)C1 (stereo not drawn) [compound 177] | < 500 nM | < 500 nM | 500 to 5000 nM |  |  | 
17 | N#Cc1ccc(-c2ccnc3[nH]ccc23)s1 [compound 108, 5-(1H-Pyrrolo[2,3-b]pyridin-4-yl)-thiophene-2-carbonitrile] |  |  |  | < 500 nM | < 500 nM | < 500 nM

Row | Structure (SMILES) | Ki (JAK3; [1]) | Ki (JAK2; [1]) | Ki (ROCK I; [1]) | Ki (JAK3; enzyme inhibition, Table 5) | Ki (JAK2; enzyme inhibition, Table 5) | Ki (ROCK I; [2])
18 | CCCN(CCC#N)C(=O)c1cc(-c2c(Cl)cnc3[nH]ccc23)c[nH]1 [compound 335] | < 500 nM | < 500 nM | 500 to 5000 nM |  |  | 
19 | O=C(c1cc(-c2ccnc3[nH]ccc23)c[nH]1)N1CCCC(O)C1 (stereo not drawn) [compound 372] | 500 to 5000 nM | 500 to 5000 nM | 500 to 5000 nM |  |  | 
20 | C#CCNC(=O)c1cc(-c2ccnc3[nH]ccc23)c[nH]1 [compound 294] | < 500 nM | < 500 nM | < 500 nM |  |  | 
21 | CC(C)C[C@@H](CO)Nc1cccc(-c2ccnc3[nH]ccc23)n1 [compound 59, (S)-2-(6-(1H-Pyrrolo[2,3-b]pyridin-4-yl)pyridin-2-ylamino)-4-methylpentan-1-ol] |  |  |  | > 5000 nM | > 5000 nM | 500 to 5000 nM
22 | O=C(Nc1ccccc1)c1cc(-c2ccnc3[nH]ccc23)c[nH]1 [compound 275] | < 500 nM | < 500 nM | < 500 nM |  |  | 
23 | COc1ccc(OC)c(Nc2c(Cl)cnc3[nH]ccc23)c1 [compound 154] | < 500 nM | < 500 nM | > 4000 nM |  |  | 
24 | C#CCOC(=O)N1CC[C@H](Nc2c(Cl)cnc3[nH]ccc23)C1 [compound 165] | < 500 nM | < 500 nM | > 4000 nM |  |  | 
25 | Clc1ccccc1CNc1cccc(-c2ccnc3[nH]ccc23)n1 [compound 33, N-(2-Chlorobenzyl)-6-(1H-pyrrolo[2,3-b]pyridin-4-yl)pyridin-2-amine] |  |  |  | 500 to 5000 nM | 500 to 5000 nM | 500 to 5000 nM
26 | Fc1cccc(-c2c(Cl)cnc3[nH]ccc23)n1 [compound 48, 5-chloro-4-(6-fluoropyridin-2-yl)-1H-pyrrolo[2,3-b]pyridine] |  |  |  | < 500 nM | < 500 nM | 500 to 5000 nM
27 | CC(=O)c1ccc(-c2c(Cl)cnc3[nH]ccc23)s1 [compound 145] | < 500 nM | < 500 nM | > 4000 nM |  |  | 
28 | CC1CCC(Nc2c(Cl)cnc3[nH]ccc23)CC1 (stereo not drawn) [compound 229] | < 500 nM | < 500 nM | 500 to 5000 nM |  |  | 
29 | O=C1NCCCC[C@@H]1Nc1c(Cl)cnc2[nH]ccc12 [compound 228] | < 500 nM | < 500 nM | > 4000 nM |  |  | 
30 | CC(C)(C)C(=O)Nc1ncccc1-c1ccnc2[nH]ccc12 [compound 194] | > 5000 nM | > 5000 nM | > 4000 nM |  |  | 
31 | c1ccc(COc2ccccc2-c2ccnc3[nH]ccc23)cc1 [compound 225] | > 5000 nM | > 5000 nM | > 4000 nM |  |  | 
32 | C[C@@H](Nc1nc(-c2ccnc3[nH]ccc23)nc2ccccc12)C(=O)NCC(F)(F)F [compound 200] | 500 to 5000 nM | 500 to 5000 nM | > 4000 nM |  |  | 
33 | O=C(NCC(F)(F)F)[C@H](CO)Nc1nc(-c2ccnc3[nH]ccc23)ncc1F [compound 204] | < 500 nM | 500 to 5000 nM | 500 to 5000 nM |  |  | 
34 | CC(=O)Nc1ccccc1-c1ccnc2[nH]ccc12 [compound 118] |  |  |  | > 5000 nM | > 5000 nM | 500 to 5000 nM
